From patent publication US7176237B2, “Tricyclic-bis-enone derivatives and methods of use thereof” (The Trustees of Dartmouth College, priority 2002, dated 2007)
Read-outs that look alike come from different tables or passages of the source.

How the values were obtained:
[1] = test system: NO production induced by IFN-γ in mouse macrophages; assay: iNOS assay: inhibition of NO production induced by IFN-γ in mouse macrophages; type: cell-based; details: for IC50: Macrophage
[2] = test system: NRP-152 prostate epithelial cells; assay: Inhibition of proliferation of NRP-152 prostate epithelial cells; type: cell-based; details: Rattus norvegicus, Epithelial cell, read-out: IC50 level, inhibition of proliferation
[3] = test system: COX-2 mRNA in RAW 264.7 cells; assay: Suppression of COX-2 mRNA formation in RAW 264.7 cells; type: cell-based
Method: (§1) Standard methodology already in place in the inventors laboratory (Suh et al., 1998, 1999, incorporated herein by reference) can be used to evaluate the biological activity of newly synthesized TBEs using suppression of de novo synthesis of iNOS and COX-2 as endpoints. Briefly, primary mouse macrophages or RAW264.7 cells can be cultured under standard conditions and stimulated with either interferon-γ or lipopolysaccharide (LPS). TBEs are added to cell cultures at the same time as inducers. Nitric oxide production in cell culture supernatants can be measured as nitrite accumulation by the Griess reaction. Analysis of levels of iNOS protein in lysates of primary macrophages or RAW cells can be done by Western blot analysis, while levels of iNOS mRNA can be done by routine Northern blot analysis. Prostaglandin E2 production is measured with a commercially available ELISA assay kit, and […] protein and mRNA levels can measured by routine Western and Northern blot analysis, respectively. All these methods are well known in the art.

[4] = test system: iNOS mRNA in RAW 264.7 cells; assay: Suppression of iNOS mRNA formation in RAW 264.7 cells; type: cell-based
Method: as §1

[5] = test system: activation of macrophages in CD-1 mice; type: in vivo
[6] = test system: MCF-7 breast cancer cells (ER-positive); assay: Inhibition of estrogen-stimulated growth of MCF-7 breast cancer cells; type: cell-based, human
[7] = test system: several cancer cell lines; assay: Inhibitory activity against several cancer cell lines (data not shown); type: cell-based
[8] = blocking of induction of iNOS by IFN-γ, NO production in mouse macrophages, read-out: Activity IC50

Q: Which IC50 [1, 8] does the source give for `CC1(C)C(=O)C(C#N)=C[C@]2(C)C3=CCC[C@@H](O)[C@]3(C)CC[C@@H]12` (racemic) [(±)-TBE-1] here?
A: The IC50 was 0.31 µM.

Q: Which IC50 [1, 8] does the source give for `CC(=O)O[C@@H]1CCC=C2[C@@]3(C)C=C(C#N)C(=O)C(C)(C)[C@@H]3CC[C@]21C` (racemic) [(±)-TBE-2] here?
A: The IC50 was 0.48 µM.

Q: With `CC(=O)O[C@@H]1CC(=O)C=C2[C@@]3(C)C=C(C#N)C(=O)C(C)(C)[C@@H]3CC[C@]21C` (racemic) [(±)-TBE-3] as the compound, how does the IC50 [2] read?
A: Its IC50 is ~0.1 µM.

Q: What about the “potency, times less than CDDO (COX-2 mRNA)” value ([3]; RAW cells) of the same compound?
A: The value was “about 10 times”.

Q: And the “formation of COX-2 mRNA” value ([3]; at 1 μM in RAW cells)?
A: Its value is “suppresses”.

Q: And the “potency, times less than CDDO (iNOS mRNA)” value ([4]; RAW cells)?
A: The value was “about 10 times”.

Q: And the “formation of iNOS mRNA” value ([4]; at 1 μM in RAW cells)?
A: The value was “suppresses”.

Q: What about the IC50 [1, 8] of the same compound?
A: The IC50 was 0.053 µM.

Q: With `CC1(C)C(=O)C(C#N)=C[C@]2(C)C3=CC(=O)C[C@@H](O)[C@]3(C)CC[C@@H]12` (racemic) [(±)-TBE-4] as the compound, how does the IC50 [1, 8] read?
A: Its IC50 is 0.075 µM.

Q: Which IC50 [2] does the source give for `CC1(C)C(=O)C(C#N)=C[C@]2(C)C3=CC(=O)C=C[C@]3(C)CC[C@@H]12` (racemic) [(±)-TBE-5] here?
A: Its IC50 is ~0.1 µM.

Q: What about the IC50 ([1]; NO production induced by IFN-γ in mouse macrophages, order-of-magnitude level, read-out: IC50 level stated in text) of the same compound?
A: Its IC50 is ~0.01 µM.

Q: What about the IC50 [1, 8] of the same compound?
A: The IC50 was 0.061 µM.

Q: For `COC(=O)C1=C[C@]2(C)CC[C@H]3C(C)(C)C(=O)C(C#N)=C[C@]3(C)C2=CC1=O` (racemic) [(±)-TBE-6], which IC50 [1, 8] is on record?
A: Its IC50 is 0.091 µM.

Q: `CC1(C)C(=O)C(C#N)=C[C@]2(C)C3=CC(=O)C(C(=O)O)=C[C@]3(C)CC[C@@H]12` (racemic) [(±)-TBE-7] was tested. Which IC50 [1, 8] did it give?
A: The IC50 was 1.6 µM.

Q: With `CC1(C)C(=O)C(C#N)=C[C@]2(C)C3=CC(=O)C(C(N)=O)=C[C@]3(C)CC[C@@H]12` (racemic) [(±)-TBE-8] as the compound, how does the IC50 [1, 8] read?
A: Its IC50 is 0.061 µM.

Q: What does the source list for `CC1(C)C(=O)C(C#N)=C[C@]2(C)C3=CC(=O)C(C#N)=C[C@]3(C)CC[C@@H]12` (racemic) [(±)-TBE-9]?
A: signs of toxicity ([5]; 15 and 30 mg/kg oral, mouse): no signs of toxicity; oral activity in vivo ([5]; 15 and 30 mg/kg, administered once, oral, mouse): orally active; activation of macrophages in mice ([5]; CD-1 mice): blocks the activation of macrophages; in vivo potency compared with hydrocortisone ([5]; mouse peritoneal inflammation): much more potent than hydrocortisone; potency, times more than TBE-5 [6]: about 30 times; concentration range of dose-dependent inhibition of estrogen-stimulated growth ([6]; MCF-7 (ER-positive)): 10 to 1000 nM; times more potent than TBE-5 [1]: ~30 times; IC50 [1, 8]: 0.0021 µM; IC50 ([1]; Mus musculus, iNOS assay, order-of-magnitude level, read-out: IC50 level stated in text): ~0.001 µM; potency in iNOS assay, statement in words ([1]; iNOS assay): highest potency; times more potent than hydrocortisone ([1]; iNOS assay): about 5 times

Q: What does the source list for `CC1(C)C(=O)C(C#N)=C[C@]2(C)C3=CC(=O)CC[C@]3(C)CC[C@@H]12` (racemic) [(±)-TBE-10]?
A: times more potent than TBE-5 [1]: about 3 times; IC50 [1, 8]: 0.019 µM

Q: With `CC1(C)C(=O)C(C#N)=C[C@@]2(C)C3=CC(=O)C=C[C@@]3(C)CC[C@H]12` [(+)-TBE-5] as the compound, how does the “inhibitory activity against several cancer cell lines, enantiomers compared” value [7] read?
A: The value was “same inhibitory activity”.

Q: What about the IC50 [1, 8] of the same compound?
A: Its IC50 is 0.064 µM.

Q: And the “potency in iNOS assay, statement in words” value ([1]; iNOS assay)?
A: Its value is “same potency”.

Q: For `CC1(C)C(=O)C(C#N)=C[C@]2(C)C3=CC(=O)C=C[C@]3(C)CC[C@@H]12` [(−)-TBE-5], which “inhibitory activity against several cancer cell lines, enantiomers compared” value [7] is on record?
A: The value was “same inhibitory activity”.

Q: And the IC50 [1, 8]?
A: Its IC50 is 0.058 µM.

Q: And the “potency in iNOS assay, statement in words” value ([1]; iNOS assay)?
A: Its value is “same potency”.

Q: Which IC50 [1, 8] does the source give for `C[C@]12CCC(=O)C=C1CC[C@@H]1[C@@H]2[C@@H](O)C[C@@]2(C)[C@H]1CC[C@]2(O)C(=O)CO` [Hydrocortisone, reference compound] here?
A: Its IC50 is 0.01 µM.

Q: How did the IC50 [1, 8] turn out when `CC1(C)CC[C@]2(C(=O)O)CC[C@]3(C)C(=CC[C@@H]4[C@@]5(C)CC[C@H](O)C(C)(C)[C@@H]5CC[C@]43C)[C@@H]2C1` [Oleanolic acid, reference compound] was run?
A: The IC50 was > 40 µM.
